Values of other authors, collected in US20260137743A1, “METHODS OF RELIEVING PAIN” (Infinitum Health, LLC, priority 2023, published 2026).

Settings: isolated from Incarvillea sinensis

## COc1cc([C@H]2[C@H](C(=O)O[C@@H]3C[C@@H]4[C@@H](CN(C)C[C@@H]4C)[C@@H]3C)[C@H](c3ccc(O)c(OC)c3)[C@H]2C(=O)O[C@@H]2C[C@@H]3[C@@H](CN(C)C[C@@H]3C)[C@@H]2C)ccc1O [Incarvillateine, incarvillateine]
  analgesic (pain relief) activity: significant analgesic (pain relief) activity
